Calls of active or inactive are those of the source. The rule behind the calls is not given here.
Legend:
[1] = tested on: C3H 10T1/2; experiment: Induction of osteogenesis in mouse C3H10T1/2 cells assessed as increase in alkaline phosphatase activity at 2 uM after 72 hrs by ALP assay; type: functional
[2] = tested on: C3H 10T1/2; experiment: Induction of osteogenesis in mouse C3H10T1/2 cells assessed as increase in alkaline phosphatase activity after 72 hrs by ALP assay; type: functional, cell-based
[3] = Cytotoxicity against mouse 3T3L1 cells at 0.1 to 25 uM after 24 hrs by WST-1 assay; type: cell-based; settings: 3t3-l1, 24 h
[4] = tested on: HeLa; experiment: Cytotoxicity against human HeLa cells at 0.1 to 25 uM after 24 hrs by WST-1 assay; type: cell-based
[5] = tested on: PC-3; experiment: Cytotoxicity against human PC3 cells at 0.1 to 25 uM after 24 hrs by WST-1 assay; type: cell-based; settings: pc-3, 24 h
[6] = tested on: C3H 10T1/2; experiment: Induction of osteogenesis in mouse C3H10T1/2 cells assessed as calcium deposition at 4 uM by Alizarin Red S staining-based assay; type: functional, cell-based
[7] = tested on: Mus musculus; experiment: Induction of osteogenesis in ovariectomized C57BL/6 mouse model assessed as increase in trabecular number at 10 mg/kg/day, po administered 5 days per week for 4 weeks by micro-CT analysis relative to vehicle-treated control; type: functional, organism-based; settings: Trabecula
[8] = tested on: Mus musculus; experiment: Induction of osteogenesis in ovariectomized C57BL/6 mouse model assessed as increase in […] at 5 to 10 mg/kg/day, po administered 5 days per week for 4 weeks by dual-energy X-ray absorptiometry relative to vehicle-treated control; type: functional
[9] = tested on: Mus musculus; experiment: Induction of osteogenesis in ovariectomized C57BL/6 mouse model assessed as reduction in trabecular space at 10 mg/kg/day, po administered 5 days per week for 4 weeks by micro-CT analysis relative to vehicle-treated control; type: functional, organism-based; settings: Trabecula
[10] = tested on: HepG2; experiment: Cytotoxicity against human HepG2 cells at 0.1 to 25 uM after 24 hrs by WST-1 assay; type: cell-based; settings: hepg2, 24 h
[11] = tested on: C3H 10T1/2; experiment: Activation of proto-oncogene protein Wnt/beta-catenin signaling (unknown origin) transfected in mouse C3H10T1/2 cells assessed as increase in transcriptional activity at 2 uM after 48 hrs by TOPflash luciferase reporter gene assay; type: cell-based; settings: Homo sapiens
[12] = tested on: DU-145; experiment: Cytotoxicity against human DU145 cells at 0.1 to 25 uM after 24 hrs by WST-1 assay; type: cell-based; settings: du-145, 24 h
[13] = tested on: C3H 10T1/2; experiment: Induction of osteogenesis in mouse C3H10T1/2 cells using BCIP as substrate assessed as increase in alkaline phosphatase activity at 0.25 to 4 uM after 72 hrs by nitroblue tetrazolium chloride staining-based assay; type: functional, cell-based
[14] = tested on: Mus musculus; experiment: Induction of osteogenesis in ovariectomized C57BL/6 mouse model assessed as increase in bone volume at 10 mg/kg/day, po administered 5 days per week for 4 weeks by micro-CT analysis relative to vehicle-treated control; type: functional, organism-based
[15] = tested on: L6; experiment: Cytotoxicity against rat L6 cells at 0.1 to 25 uM after 24 hrs by WST-1 assay; type: cell-based; settings: l6, 24 h
[16] = tested on: C2C12; experiment: Cytotoxicity against mouse C2C12 cells at 0.1 to 25 uM after 24 hrs by WST-1 assay; type: cell-based; settings: c2c12, 24 h
[17] = Cytotoxicity against human CaSki cells at 0.1 to 25 uM after 24 hrs by WST-1 assay; type: cell-based; settings: ca-ski

Compound	fold change (FC) [1]	Activity [2]	other results
CC1(C)C=C(c2ccc(N)cc2)c2ccc(O)cc2O1	3.9		
CN(C)c1cccc(C2=CC(C)(C)Oc3cc(O)ccc32)c1	1.6		
CC1(C)C=C(c2cccc(O)c2)c2ccc(O)cc2O1	1.4		
Cc1n[nH]c(C)c1C1CC(C)(C)Oc2cc(O)ccc21 (stereo unspecified)		inactive	
O=[N+]([O-])c1cccc(C2=CC3(CCCC3)Oc3cc(O)ccc32)c1	0.6		
COc1ccc2c(c1O)OC(C)(C)C=C2c1cccc([N+](=O)[O-])c1	1.5		
CC1(C)C=C(c2cccc([N+](=O)[O-])c2)c2ccc(O)cc2O1	6.8	Dose-dependent effect	Activity [3]: Non-toxic; Activity [4]: Non-toxic; Activity [5]: Non-toxic; Activity [6]: Active; Activity [7]: Active; Activity [8]: 37%; Activity [9]: Active; Activity [10]: Non-toxic; Activity [11]: Active; Activity [12]: Non-toxic; Activity [13]: Dose-dependent effect; Activity [14]: Active; Activity [15]: Non-toxic; Activity [16]: Non-toxic; Activity [17]: Non-toxic
CC1(C)CC(c2ccoc2)c2ccc(O)cc2O1 (stereo unspecified)		inactive	
CC1(C)CC(c2ccccc2)c2ccc(O)cc2O1 (stereo unspecified)		inactive	
CN(C)c1ccc(C2=CC(C)(C)Oc3cc(O)ccc32)cc1	0.7		
CC1(C)C=C(c2cc(Cl)cc(Cl)c2)c2ccc(O)cc2O1	1.5		
CC1(C)CC(c2cccnc2)c2ccc(O)cc2O1 (stereo unspecified)		inactive	
CC1(C)CC(c2ccc([N+](=O)[O-])cc2)c2cc(-c3cccc(O)c3)ccc2O1 (stereo unspecified)		inactive	
CC1(C)C=C(c2ccc([N+](=O)[O-])cc2)c2ccc(O)cc2O1	3.1		
CCOC(=O)CCC1(C)C=C(c2cccc([N+](=O)[O-])c2)c2ccc(O)cc2O1 (stereo unspecified)	1.4		
CC1(C)C=C(c2cccc(N)c2)c2ccc(O)cc2O1	2.5		
CC(=O)c1cccc(C2=CC(C)(C)Oc3cc(O)ccc32)c1	1.9		
CC1(C)C=C(c2ccccc2[N+](=O)[O-])c2ccc(O)cc2O1	1.2		
CC1(C)CC(c2ccc([N+](=O)[O-])cc2)c2cc(Cl)cc(-c3cccc(O)c3)c2O1 (stereo unspecified)		inactive	
CC1(C)CC(c2cccs2)c2ccc(O)cc2O1 (stereo unspecified)		inactive	

Source: ChEMBL document CHEMBL3217458, “Discovery of a novel benzopyranyl compound as a potent in vitro and in vivo osteogenic agent” (Medchemcomm, 2011)
